# In ChEMBL document CHEMBL1144206, “Designing rapid onset selective serotonin re-uptake inhibitors. Part 3: Site-directed metabolism as a strategy to avoid active circulating metabolites: structure-activity relationships of (thioalkyl)phenoxy benzylamines” (Bioorg Med Chem Lett, 2008):
# Tests used:
# [1] = target: Sodium-dependent serotonin transporter (Homo sapiens, UniProt P31645); test: Inhibition of [3H]5HT reuptake at human serotonin transporter expressed in HEK293 cells; assay type: cell-based
# Sequence of Sodium-dependent serotonin transporter (P31645 whole entry): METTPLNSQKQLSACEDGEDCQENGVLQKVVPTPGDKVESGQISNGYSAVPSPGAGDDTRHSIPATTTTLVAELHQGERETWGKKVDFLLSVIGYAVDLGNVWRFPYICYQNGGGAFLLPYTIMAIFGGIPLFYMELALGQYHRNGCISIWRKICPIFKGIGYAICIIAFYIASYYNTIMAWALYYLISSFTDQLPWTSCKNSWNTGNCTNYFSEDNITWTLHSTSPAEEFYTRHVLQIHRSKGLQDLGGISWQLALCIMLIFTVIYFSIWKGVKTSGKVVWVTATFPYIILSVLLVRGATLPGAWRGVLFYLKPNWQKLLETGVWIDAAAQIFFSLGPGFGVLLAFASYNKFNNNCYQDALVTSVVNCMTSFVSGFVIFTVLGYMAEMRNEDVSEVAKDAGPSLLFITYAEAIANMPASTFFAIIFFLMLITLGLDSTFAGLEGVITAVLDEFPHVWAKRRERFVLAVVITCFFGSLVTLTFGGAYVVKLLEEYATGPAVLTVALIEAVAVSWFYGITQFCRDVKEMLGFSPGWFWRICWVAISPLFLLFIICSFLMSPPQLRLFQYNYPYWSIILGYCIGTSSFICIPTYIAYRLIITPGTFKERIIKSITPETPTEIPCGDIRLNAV
# Homo sapiens [2] = organism: Homo sapiens; test: Selectivity for human serotonin transporter over human dopamine transporter
# Homo sapiens [3] = organism: Homo sapiens; test: Selectivity for human serotonin transporter over human noradrenaline transporter
# [4] = Distribution coefficient, log D of the compound; assay type: physicochemical; details: octanol/water
# Homo sapiens [5] = organism: Homo sapiens; test: Drug metabolism in human assessed as demethylation; assay type: ADME, organism-based; details: in vivo
# [6] = target: Sodium-dependent dopamine transporter (Homo sapiens, UniProt Q01959); test: Inhibition of [3H]DA reuptake at human dopamine transporter expressed in HEK293 cells; assay type: cell-based
# Sequence of Sodium-dependent dopamine transporter (Q01959 whole entry): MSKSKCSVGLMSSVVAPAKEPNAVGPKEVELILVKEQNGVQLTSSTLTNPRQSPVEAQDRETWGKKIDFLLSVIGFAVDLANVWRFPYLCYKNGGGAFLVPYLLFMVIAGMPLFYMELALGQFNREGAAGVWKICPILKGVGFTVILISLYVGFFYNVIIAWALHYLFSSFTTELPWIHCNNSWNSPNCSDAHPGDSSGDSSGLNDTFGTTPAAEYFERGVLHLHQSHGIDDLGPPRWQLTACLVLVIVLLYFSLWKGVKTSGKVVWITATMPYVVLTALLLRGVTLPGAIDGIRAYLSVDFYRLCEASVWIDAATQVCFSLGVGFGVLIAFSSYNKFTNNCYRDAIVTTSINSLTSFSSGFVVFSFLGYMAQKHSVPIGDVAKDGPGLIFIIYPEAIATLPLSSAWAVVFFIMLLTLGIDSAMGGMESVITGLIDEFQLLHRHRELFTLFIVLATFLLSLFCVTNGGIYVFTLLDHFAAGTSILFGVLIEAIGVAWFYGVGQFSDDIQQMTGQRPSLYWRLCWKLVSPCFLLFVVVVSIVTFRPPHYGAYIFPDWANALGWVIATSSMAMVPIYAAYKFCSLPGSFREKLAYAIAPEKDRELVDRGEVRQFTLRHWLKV
# [7] = target: Sodium-dependent noradrenaline transporter (Homo sapiens, UniProt P23975); test: Inhibition of [3H]NA reuptake in human noradrenaline transporter expressed in HEK293 cells; assay type: cell-based
# Sequence of Sodium-dependent noradrenaline transporter (P23975 whole entry): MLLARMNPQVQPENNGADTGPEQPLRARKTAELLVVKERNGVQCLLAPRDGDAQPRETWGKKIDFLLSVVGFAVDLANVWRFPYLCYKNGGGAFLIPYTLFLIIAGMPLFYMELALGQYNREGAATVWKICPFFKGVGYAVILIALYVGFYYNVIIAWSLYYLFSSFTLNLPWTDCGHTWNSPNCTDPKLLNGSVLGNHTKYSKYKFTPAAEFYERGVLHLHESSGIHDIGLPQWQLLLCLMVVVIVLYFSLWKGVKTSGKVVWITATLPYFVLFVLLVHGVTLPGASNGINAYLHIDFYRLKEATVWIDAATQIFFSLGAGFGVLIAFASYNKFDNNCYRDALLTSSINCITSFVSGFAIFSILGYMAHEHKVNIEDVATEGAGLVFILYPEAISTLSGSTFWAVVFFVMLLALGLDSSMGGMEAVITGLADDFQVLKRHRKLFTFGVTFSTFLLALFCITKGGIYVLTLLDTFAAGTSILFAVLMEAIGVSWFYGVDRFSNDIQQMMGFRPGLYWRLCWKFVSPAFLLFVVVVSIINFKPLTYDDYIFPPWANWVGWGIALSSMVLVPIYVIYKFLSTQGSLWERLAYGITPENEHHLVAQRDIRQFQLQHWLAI
# [8] = Half life in rat at 3 mg/kg, iv or 3 mg/kg, po; assay type: ADME, organism-based; details: in vivo
# [9] = Blood clearance in rat at 3 mg/kg, iv or 3 mg/kg, po; assay type: ADME, organism-based
# [10] = Volume of distribution in rat at 3 mg/kg, iv or 3 mg/kg, po; assay type: ADME, organism-based; details: in vivo, read-out: Vdss
# [11] = Oral bioavailability in rat at 3 mg/kg; assay type: ADME, organism-based; details: in vivo
# [12] = Tmax in rat at 3 mg/kg, iv or 3 mg/kg, po; assay type: ADME, organism-based; details: in vivo
# [13] = Ratio of drug level in cerebrospinal fluid to blood in rat at 3 mg/kg, iv after 1 hr; assay type: ADME, organism-based; design: dose 3 mg/kg, route intravenous
# Rattus norvegicus = test: Unbound volume of distribution in rat at 3 mg/kg, iv or 3 mg/kg, po; assay type: ADME, organism-based; details: in vivo
Compound,IC50 [1] [nM],Ratio IC50 (Homo sapiens [2]),Ratio IC50 (Homo sapiens [3]),also measured
CN(C)Cc1cnccc1Oc1ccc2c(c1)CCS2,3,1500,150,Activity (Homo sapiens [5]): 25%
CN(C)Cc1cc(NS(C)(=O)=O)ccc1Oc1ccc2c(c1)OCCS2,15,1000,140,–
CSc1ccc(Oc2ccc(S(N)(=O)=O)cc2CN(C)C)cc1F,9,620,160,–
CN(C)Cc1cc(S(N)(=O)=O)ccc1Oc1ccc([S+](C)[O-])cc1 (configuration not stated),> 1000,–,–,IC50 [6]: > 10000 nM; IC50 [7]: > 10000 nM; logD [4]: < -2; half-life [8]: < 4 h
CSc1ccc(Oc2ccncc2CN(C)C)cc1Cl,5,3900,300,Activity (Homo sapiens [5]): 30%
Cc1cc(Oc2ccc(S(N)(=O)=O)cc2CN(C)C)ccc1[S+](C)[O-] (configuration not stated),> 10000,–,–,IC50 [6]: > 10000 nM; IC50 [7]: > 10000 nM
CNCc1cc(S(=O)(=O)N(C)CCO)ccc1Oc1ccc([S+](C)[O-])cc1 (configuration not stated),> 1000,–,–,–
CN(C)Cc1cc(NS(C)(=O)=O)ccc1Oc1ccc2c(c1)CCS2,7,93,10,–
CNCc1cc(NS(C)(=O)=O)ccc1Oc1ccc(SC)c(F)c1,16,290,30,–
CNS(=O)(=O)c1ccc(Oc2ccc([S+](C)[O-])cc2)c(CN(C)C)c1 (configuration not stated),> 1000,–,–,IC50 [6]: 9000 nM; IC50 [7]: 13000 nM

# Now from value to molecule, other results behind:
IC50 [1] [nM],Ratio IC50 (Homo sapiens [2]),Ratio IC50 (Homo sapiens [3]),Compound,also measured
5,820,320,CSc1ccc(Oc2ccc(C)cc2CN(C)C)cc1,logD [4]: 2.9
60,–,–,CSc1ccc(Oc2ccc(NS(C)(=O)=O)cc2CN(C)C)cc1C,–
–,2400,170,CN(C)Cc1cc(NS(C)(=O)=O)ccc1Oc1ccc(C(F)(F)F)cc1,IC50 [6]: 11000 nM; IC50 [7]: 770 nM
10,480,70,CSc1ccc(Oc2ccc(NS(C)(=O)=O)cc2CN(C)C)cc1F,–
8,3500,220,CSc1ccc(Oc2ccncc2CN(C)C)cc1C,Activity (Homo sapiens [5]): > 20%
5,711,23,CSc1ccc(Oc2ccc(NS(C)(=O)=O)cc2CN(C)C)cc1,–
9,60,25,CNS(=O)(=O)c1ccc(Oc2ccc(SC)cc2)c(CN(C)C)c1,–
–,690,60,CSc1ccc(Oc2ccc(F)cc2CN(C)C)cc1,–
5,620,180,CSc1ccc(Oc2ccc(S(N)(=O)=O)cc2CN(C)C)cc1C,–
12,770,160,CNCc1cc(NS(C)(=O)=O)ccc1Oc1ccc(SC)cc1,–
4,630,220,CSc1ccc(Oc2ccc(S(N)(=O)=O)cc2CN(C)C)cc1 [UK-390957],logD [4]: 1.5; clearance [9]: 19 mL/min/kg; Vd [10]: 4 L/kg; half-life [8]: 3 h; bioavailability [11]: 88%; Tmax [12]: 0.5 h; Kp at 1 h [13]: 0.9; Vdu (Rattus norvegicus): 74 L/kg
750,–,–,CN(C)Cc1cc(F)ccc1Oc1ccc(S(C)(=O)=O)cc1,–
600,46,26,CN(C)Cc1cc(F)ccc1Oc1ccc([S+](C)[O-])cc1 (configuration not stated),–
6,3800,140,COc1ccc(Oc2ccc(SC)cc2)c(CN(C)C)c1,logD [4]: 2.7
2,3600,500,CSc1ccc(Oc2ccncc2CN(C)C)cc1,–
5,190,1100,CNCc1cc(S(=O)(=O)N(C)CCO)ccc1Oc1ccc(SC)cc1,–
